Experimental data reported in patent US9938262B2, “Benzamides” (Merck Patent GmbH, priority 2011, dated 2018).

Molecular target: T1, FSHR (Homo sapiens, UniProt P23945)
T1 construct: expressed in transfected cells; host or cells: CHO (Cho-FSHR-LUC-1-1-43)
Experiment: EC50 of cyclic AMP production in CHO FSHR cells + EC20 FSH (Assay A)
Assay type: cell-based
Details: Table 1; for EC50: CHO FSHR cells + EC20 FSH, read-out: Assay A EC50 of cyclic AMP production; for activation at 5 µM: 1 h, effect relative to maximum response of the FSH standard
Procedure: Example 10: EC50 of Cyclic AMP Production in CHO FSHR Cells+EC20 FSH (Assay A)
2500 Cho-FSHR-LUC-1-1-43 cells were plated per well in 5 μl of phenol red free DMEM/F12+1% FBS. Cells were plated in 384 well, solid white low volume plates (Greiner 784075) by Multidrop. Cells were assayed by adding 100 μl of 2×EC20 FSH/IBMX in DMEM/F12+0.1% BSA) by Multidrop to 2 μl of test compound stamped in 384 well plates (compounds are diluted 1:50). The final FSH concentration was […], and the final IBMX concentration was 200 μM. The compound plate map was as follows: Column 1: 2 μl of DMSO; Column 2: 2 μl of DMSO; Columns 3-12 and 13-24: 2 μl of test compound, diluted 1:4 in 100% DMSO, or 2 μl of FSH, diluted 1:4 in DMEM/F12+0.1% BSA. The starting concentration for FSH was 50 nM (final concentration was 0.5 nM). […] 5 μl of compound+EC20 FSH mixture were transferred to cell plates (1:2 dilution into 5 μl of cell media) The plates were incubated at 37° C. for 1 h. 10 μl of mixed HTRF (CisBio #62AM4PEC) reagents were added per well and incubated at room temperature for 1 h. The plates were read on Envision using the cAMP HTRF—low volume 384 well protocol. The readout was the calculated fluorescence ratio (665 nm/620 nm). Values given in percent (%) indicate the percental effect (response) at a certain concentration of agonist relative to the maximum response of the FSH standard.

T1 sequence (P23945 18-695): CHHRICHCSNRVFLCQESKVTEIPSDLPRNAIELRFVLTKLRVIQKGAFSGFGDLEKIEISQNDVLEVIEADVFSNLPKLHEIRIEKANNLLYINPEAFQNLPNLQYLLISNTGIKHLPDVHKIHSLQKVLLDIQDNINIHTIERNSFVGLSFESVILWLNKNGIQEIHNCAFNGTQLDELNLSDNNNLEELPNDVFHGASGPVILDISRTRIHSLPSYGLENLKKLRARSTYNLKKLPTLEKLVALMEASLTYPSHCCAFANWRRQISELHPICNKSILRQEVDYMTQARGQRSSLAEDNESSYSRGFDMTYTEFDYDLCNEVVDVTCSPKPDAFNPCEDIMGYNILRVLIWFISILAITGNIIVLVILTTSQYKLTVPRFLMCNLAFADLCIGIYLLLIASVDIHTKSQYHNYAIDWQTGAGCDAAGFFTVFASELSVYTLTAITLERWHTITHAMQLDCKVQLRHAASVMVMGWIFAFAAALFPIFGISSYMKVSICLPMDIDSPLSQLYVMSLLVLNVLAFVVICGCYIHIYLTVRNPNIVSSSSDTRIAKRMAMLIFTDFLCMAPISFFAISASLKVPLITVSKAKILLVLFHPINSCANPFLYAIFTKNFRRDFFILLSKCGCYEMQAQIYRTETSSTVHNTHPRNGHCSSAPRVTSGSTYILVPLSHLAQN
T1 sequence (P01215 25-116 partner): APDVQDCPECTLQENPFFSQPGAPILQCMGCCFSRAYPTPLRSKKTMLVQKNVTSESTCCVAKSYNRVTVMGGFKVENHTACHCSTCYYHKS
T1 sequence (P01225 19-129 partner): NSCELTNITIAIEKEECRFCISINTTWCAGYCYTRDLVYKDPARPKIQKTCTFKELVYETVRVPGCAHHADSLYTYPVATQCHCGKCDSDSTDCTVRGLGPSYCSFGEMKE

Row | EC50 [nM] | activation at 5 µM [%] | SMILES
1 |  | 39 | Cc1ccccc1N1CCN(c2ccc(C(=O)NCCc3c[nH]c4ccccc34)cc2NC(=O)c2ccco2)CC1 [Compound 10, Furan-2-carboxylic acid [5-[2-(1H-indol-3-yl)-ethylcarbamoyl]-2-(4-o-tolyl-piperazin-1-yl)-phenyl]-amide]
2 |  | 14 | Cc1ccccc1N1CCN(c2ccc(C(=O)NCCCN3CCCC3=O)cc2NC(=O)c2ccc(-c3ccccc3)o2)CC1 [Compound 13]
3 | 100 to 1000 |  | Cc1cc(C(=O)Nc2cc(C(=O)NCCCN3CCCC3=O)ccc2N2CCN(c3ccccc3C)CC2)c(C)o1 [Compound 14]
4 | 100 to 1000 |  | COc1ccc(CNC(=O)c2ccc(N3CCN(c4ccccc4C)CC3)c(NC(=O)c3ccco3)c2)cc1OC [Compound 17]
5 | 100 to 1000 |  | Cc1ccccc1N1CCN(c2ccc(C(=O)NCCCN3CCCC3=O)cc2NC(=O)c2cccs2)CC1 [Compound 20]
6 |  | 22 | Cc1ccccc1N1CCN(c2ccc(C(=O)N[C@@H]3CCCN(C(=O)OC(C)(C)C)C3)cc2NC(=O)c2ccco2)CC1 [Compound 21]
7 |  | 4 | CC(=O)N1CCN(C(=O)c2ccc(N3CCN(c4ccccc4C)CC3)c(NC(=O)c3ccco3)c2)CC1 [Compound 23]
8 |  | 37 | Cc1ccccc1N1CCN(c2ccc(C(=O)NCCCN3CCCC3=O)cc2NC(=O)c2cccnc2)CC1 [Compound 37]

The next lines start with the compound.

Row | SMILES | EC50 [nM] | activation at 5 µM [%]
9 | Cc1cc(C(=O)Nc2cc(C(=O)NCCCN3CCCC3=O)ccc2N2CCN(c3ccccc3C)CC2)c(C(F)(F)F)o1 [Compound 1] | 100 to 1000 | 
10 | Cc1ccccc1N1CCN(c2ccc(C(=O)NCCCN3CCCC3=O)cc2NC(=O)c2sccc2Br)CC1 [Compound 4] | 1000 to 10000 | 
11 | Cc1ccccc1N1CCN(c2ccc(C(=O)NCCCN3CCCC3=O)cc2NC(=O)c2occc2Br)CC1 [Compound 7] | 1000 to 10000 | 
12 | Cc1ccccc1N1CCN(c2ccc(C(=O)N[C@@H](C)c3ccccc3)cc2NC(=O)c2ccco2)CC1 [Compound 11, furan-2-carboxylic acid [5-((S)-1-phenyl-ethylcarbamoyl)-2-(4-o-tolyl-piperazin-1-yl)-phenyl]-amide] | 100 to 1000 | 
13 | Cc1ccccc1N1CCN(c2ccc(C(=O)N3CCN(C(=O)OC(C)(C)C)CC3)cc2NC(=O)c2ccco2)CC1 [Compound 12] |  | 7
14 | Cc1ccccc1N1CCN(c2ccc(C(=O)NCCCN3CCCC3=O)cc2NC(=O)c2ccccc2Cl)CC1 [Compound 19] | 1000 to 10000 | 
15 | Cc1ccccc1N1CCN(c2ccc(C(=O)N[C@@H]3CCCNC3)cc2NC(=O)c2ccco2)CC1 [Compound 22] | 1000 to 10000 | 
16 | Cc1ccccc1N1CCN(c2ccc(C(=O)NCCCN3CCCC3=O)cc2NC(=O)c2ccc[nH]2)CC1 [Compound 24] | 1000 to 10000 | 
17 | Cc1ccccc1N1CCN(c2ccc(C(=O)NCCCN3CCCC3=O)cc2NC(=O)c2cnc(Br)s2)CC1 [Compound 25] | 1000 to 10000 | 
18 | Cc1ccccc1N1CCN(c2ccc(C(=O)NCCCN3CCCC3=O)cc2NC(=O)CC(C)C)CC1 [Compound 26] | 1000 to 10000 | 
19 | Cc1ccccc1N1CCN(c2ccc(C(=O)NCCCN3CCCC3=O)cc2NC(=O)c2cccc(Cl)c2)CC1 [Compound 28] | 1000 to 10000 | 
20 | Cc1ccccc1N1CCN(c2ccc(C(=O)NCCCN3CCCC3=O)cc2NC(=O)c2ccc(Cl)cc2)CC1 [Compound 29] | 100 to 1000 | 
21 | Cc1ccccc1N1CCN(c2ccc(C(=O)NCCCN3CCCC3=O)cc2NC(=O)c2cccc(F)c2)CC1 [Compound 30] | 1000 to 10000 | 
22 | Cc1ccccc1N1CCN(c2ccc(C(=O)NCCCN3CCCC3=O)cc2NC(=O)c2ccc(C#N)cc2)CC1 [Compound 33] | 1000 to 10000 | 
23 | Cc1cccc(C(=O)Nc2cc(C(=O)NCCCN3CCCC3=O)ccc2N2CCN(c3ccccc3C)CC2)c1 [Compound 34] | 1000 to 10000 | 
24 | Cc1ccccc1N1CCN(c2ccc(C(=O)NCCCN3CCCC3=O)cc2NC(=O)c2cccc(C(F)(F)F)c2)CC1 [Compound 39] |  | 15
25 | Cc1ccccc1N1CCN(c2ccc(C(=O)NCCCN3CCCC3=O)cc2NC(=O)c2ccc(C(F)(F)F)cc2)CC1 [Compound 40] |  | 40
26 | COc1ccccc1C(=O)Nc1cc(C(=O)NCCCN2CCCC2=O)ccc1N1CCN(c2ccccc2C)CC1 [Compound 41] | 1000 to 10000 | 
